# Tests used:
# human KCNQ2 = target: T1, human KCNQ2 (Homo sapiens, UniProt O43526); test: Whole-cell voltage clamp of KCNQ2 channel current in transfected CHO-K1 cells; format: cell-based; set-up: key to KCNQ2 (IDrug/IControl 100 nM): IDrug/IControl current amplitude ratio at -10 mV; settings: for KCNQ2 (IDrug/IControl 100 nM): activation efficacy, 100 nM compound, -10 mV test pulse, CHO-K1 cells, mean ± SEM
# T1 construct: host or cells: CHO-K1 (Chinese hamster ovary), transient transfection with Lipofectamine 2000, co-transfected with GFP
# Description: (§1) The cell line used in the electrophysiological experiments was the Chinese hamster ovary cell line (CHO-K1); KCNQ cDNA was transformed into E. coli, expressed in E. coli, and then confirmed by plasmid extraction and sequencing.
# (§2) CHO-K1 cells (Cell Bank of Chinese Academy of Sciences), medium formula: 50/50 DMEM/F-12 (Gibco), supplemented with 10% fetal bovine serum (FBS) (Gibco, Australia) and 2 mM L-glutamine (Invitrogen). Transfection and expression of KCNQ channels: 24 hours before transfection, cells were digested with trypsin (Sigma, China) and spread in a 6-well plate. Lipofectamine2000™ reagent (Invitrogen) was used for transfection, and the experiment was carried out according to the procedures provided. Twenty-four hours after transfection, cells were digested and seeded onto poly-L-lysine (Sigma)-soaked slides. After co-transfected with GFP (green fluorescent protein), the transfected cells were determined under a fluorescence microscope (Olympus). The human KCNQ2 plasmid (NCBI: NM_172107.4) and human KCNQ4 plasmid (NCBI: NM_004700.4) used were synthesized by Beijing Genomics Institute and constructed in the pcDNA3.1(+) vector plasmid. KCNQ2 and KCNQ4 plasmids were confirmed by plasmid extraction and sequencing after transformation into E. coli DH5α.
# (§3) Whole-cell voltage clamp experiments were carried out at room temperature (23˜25° C.), where Axopatch-700B amplifier (Molecular Devices, Sunnyvale, CA) and Digidata 1440A (Molecular Devices) as digital-to-analog converter were used, pClamp 10.0 software (Molecular Devices, Sunnyvale, CA) was used for signal acquisition, the signal was filtered at 2 kHz, the sampling frequency was 10 kHz. Series resistance compensation was used and set to 60%. Pipettes were pulled from Borosilicate glass capillaries (World Precision Instruments, Sarasota, FL), and the resistance of the pipettes filled with an intracellular fluid was 3-5 MΩ. The perfusion drug delivery system was BPS-8 (ALA Scientific Instruments, Westburg, NY) with a speed of approximately 1 mL/min.
# (§4) Intracellular fluid formulation for electrophysiological experiments: 145 mM KCl, 1 mM MgCl2, 5 mM EGTA, 10 mM HEPES, 5 mM MgATP (adjusted to pH=7.3 with KOH).
# (§5) Extracellular fluid formulation for electrophysiological experiments: 140 mM NaCl, 5 mM KCl, 2 mM CaCl2), 1.5 mM MgCl2, 10 mM HEPES, 10 mM glucose (adjusted to pH=7.4 with NaOH).
# (§6) To record the whole-cell currents of KCNQ2 and KCNQ4 channels, the cells were clamped at a holding potential of −120 mV, and then depolarized to −10 mV for a duration of 1500 ms, and the stimulation frequency was 0.1 Hz. The current amplitudes at the −10 mV test pulse before (IControl) and after (IDrug) the perfusion of the compounds were collected to determine the activation efficacy (IDrug/IControl).
# (§7) A certain mass of the compound was weighed and dissolved in DMSO to prepare a 20 mM DMSO stock solution which was frozen and stored at −20° C. until use. […] This kind of concentration of DMSO has no effect on the detected KCNQ channel current. For example, to prepare 100 nM and 1 μM compound solutions, the gradient dilution method was as follows: 5 μL DMSO stock solution was first pipetted and added to 10 mL of extracellular fluid, and was dissolved evenly to obtain a 10 μM compound solution; then 1 mL of 10 μM compound solution was pipetted and added to 9 mL of extracellular fluid, dissolved evenly to obtain a 1 μM compound solution; then 1 mL of 1 μM compound was pipetted and added to 9 mL of extracellular fluid, dissolved evenly to obtain a 100 nM compound solution.
# (§8) Data collection, analysis and processing were performed using pClamp10 (Molecular Devices, Sunnyvale, CA), GraphPad Prism 5 (GraphPad Software, San Diego, CA) and Excel (Microsoft Corporation) software. All data are expressed as mean±standard error. (Mean±SEM), significance analysis was performed using unpaired student's t-test. When P<0.05, the difference between the two groups was considered statistically significant. […]
# human KCNQ4 = target: T2, human KCNQ4 (Homo sapiens, UniProt P56696); test: Whole-cell voltage clamp of KCNQ4 channel current in transfected CHO-K1 cells; format: cell-based; set-up: key to KCNQ4 (IDrug/IControl 100 nM): IDrug/IControl current amplitude ratio at -10 mV; settings: for KCNQ4 (IDrug/IControl 100 nM): activation efficacy, 100 nM compound, -10 mV test pulse, CHO-K1 cells, mean ± SEM
# T2 construct: host or cells: CHO-K1 (Chinese hamster ovary), transient transfection with Lipofectamine 2000, co-transfected with GFP
# Description: as §1, §2, §3, §4, §5, §6, §7, §8
# [1] = in vitro electrophysiological experiments
KCNQ2 (IDrug/IControl 100 nM) (human KCNQ2),KCNQ4 (IDrug/IControl 100 nM) (human KCNQ4),KCNQ2 agonistic activity (in words) (human KCNQ2; [1]),KCNQ4 agonistic activity (in words) (human KCNQ4; [1]),SMILES
0.98 ± 0.00,2.72 ± 0.38,–,–,C#CCN(Cc1ccc(Br)c(F)c1)c1ccc(NC(=O)OC(C)(C)C)cc1 [Compound K43]
1.02 ± 0.02,1.35 ± 0.08,–,–,C#CCN(Cc1ccc(F)c([N+](=O)[O-])c1)c1ccc(NC(=O)OC(C)(C)C)cc1 [Compound K42]
1.03 ± 0.02,1.69 ± 0.19,–,–,C#CCN(Cc1ccc(F)c(C(F)(F)F)c1)c1ccc(NC(=O)OC(C)(C)C)cc1 [Compound K41]
0.97 ± 0.02,1.26 ± 0.16,–,–,C#CCN(Cc1ccc(F)c(C#N)c1)c1ccc(NC(=O)OC(C)(C)C)cc1 [Compound K40]

# The next lines start with the compound.
SMILES,KCNQ2 (IDrug/IControl 100 nM) (human KCNQ2),KCNQ4 (IDrug/IControl 100 nM) (human KCNQ4),KCNQ2 agonistic activity (in words) (human KCNQ2; [1]),KCNQ4 agonistic activity (in words) (human KCNQ4; [1])
C#CCN(Cc1cccc(F)c1)c1ccc(NC(=O)OC(C)(C)C)cc1 [Compound K33],1.06 ± 0.03,3.00 ± 0.18,–,–
C#CCN(Cc1ccc(F)c(F)c1)c1ccc(NC(=O)OC(C)(C)C)cc1 [Compound K39],1.10 ± 0.02,1.46 ± 0.02,–,–
C#CCN(Cc1ccc(I)cc1)c1ccc(NC(=O)OC(C)(C)C)cc1 [Compound K37],1.02 ± 0.04,3.28 ± 0.21,–,–
C#CCN(Cc1ccc(Br)cc1)c1ccc(NC(=O)OC(C)(C)C)cc1 [Compound K36],1.05 ± 0.03,3.50 ± 0.28,–,–
C#CCN(Cc1ccc([N+](=O)[O-])cc1)c1ccc(NC(=O)OC(C)(C)C)cc1 [Compound K38],0.96 ± 0.01,1.66 ± 0.19,–,–
C#CCN(Cc1ccc(Cl)cc1)c1ccc(NC(=O)OC(C)(C)C)cc1 [Compound K35],0.98 ± 0.03,3.30 ± 0.62,–,–
C#CCN(Cc1ccccc1F)c1ccc(NC(=O)OC(C)(C)C)cc1 [Compound K32],1.05 ± 0.02,2.50 ± 0.28,–,–
C#CCN(Cc1ccc(C(C)(C)C)cc1)c1ccc(NC(=O)OC(C)(C)C)cc1 [Compound K34],1.07 ± 0.04,4.40 ± 0.62,–,–
C#CCN(Cc1ccc(F)cc1)c1ccc(NC(=O)OC(C)(C)C)cc1 [Compound K31],1.07 ± 0.04,3.06 ± 0.61,lost KCNQ2 agonistic activity,still had good KCNQ4 agonistic activity

# Source: US20250122148A1, “HIGH-SELECTIVITY KCNQ4 POTASSIUM CHANNEL AGONIST, PREPARATION METHOD THEREFOR AND USE THEREOF” (SHANGHAI INSTITUTE OF MATERIA MEDICA, CHINESE ACADEMY OF …, priority 2022, published 2025)
